Test results taken from PubChem BioAssay (NCI).
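Five concentrations, 48 hours, 96-well plates. Abbreviation: GI50, concentration required for 50% inhibition of growth. TGI is the concentration that stops growth completely.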 *1 amine or outer side, *2 acyl side, *3 side chain or, on linkers, in order; H or OH if unused. Where a SMILES comes first, the peptide text is derived from it. Bridges are numbered along the chain shown (N, C = ends). [ ]: non-standard residue; d: D form. X59 = COc1c(N[*:1])cccc1C(=O)O[C@H](C(=O)[C@H](C)C(=O)[*:2])C(C)C; X58 = CC(C)C[C@H](C(=O)[*:2])C(C)C(=O)C1CCCN1[*:1]; NMeY = CN[C@@H](Cc1ccc(O)cc1)C(=O)O; Lac = C[C@H](O)C(=O)O

Tests used:
Test in all cases: NCI-60 cell line screen, 48 h
786-0 renal = tested on: 786-0 renal
NCI/ADR-RES ovarian = tested on: NCI/ADR-RES ovarian
OVCAR-3 ovarian = tested on: OVCAR-3 ovarian
UACC-257 melanoma = tested on: UACC-257 melanoma
UACC-62 melanoma = tested on: UACC-62 melanoma
M14 melanoma = tested on: M14 melanoma
RXF 393 renal = tested on: RXF 393 renal
MCF7 breast = tested on: MCF7 breast
U251 CNS = tested on: U251 CNS
MALME-3M melanoma = tested on: MALME-3M melanoma
MOLT-4 leukemia = tested on: MOLT-4 leukemia
NCI-H460 lung = tested on: NCI-H460 lung
HCT-15 colon = tested on: HCT-15 colon
NCI-H23 lung = tested on: NCI-H23 lung

| SMILES | TGI (786-0 renal) | TGI (NCI/ADR-RES ovarian) | TGI (OVCAR-3 ovarian) | TGI (UACC-257 melanoma) | TGI (UACC-62 melanoma) | TGI (M14 melanoma) | TGI (RXF 393 renal) | TGI (MCF7 breast) | TGI (U251 CNS) | TGI (MALME-3M melanoma) | TGI (MOLT-4 leukemia) | TGI (NCI-H460 lung) | TGI (HCT-15 colon) | TGI (NCI-H23 lung) | GI50 (MOLT-4 leukemia) |
| --- | --- | --- | --- | --- | --- | --- | --- | --- | --- | --- | --- | --- | --- | --- | --- |
| COc1ccc(C[C@H]2C(=O)O[C@H](C)[C@H](NC(=O)[C@@H](CC(C)C)C(C)C(=O)C3CCCN3C(=O)[C@H](C)O)C(=O)Nc3cccc(c3OC)C(=O)O[C@@H](C(C)C)C(=O)[C@H](C)C(=O)N[C@@H](CC(C)C)C(=O)N3CCC[C@H]3C(=O)N2C)cc1 (stereo partly specified) (H-[Lac][X58]T[X59]LP[NMeY](Me); ester 3-C) | > 12.5 µM | > 12.5 µM | > 12.5 µM | > 12.5 µM | > 12.5 µM | > 12.5 µM | > 12.5 µM | > 12.5 µM | > 12.5 µM | > 12.5 µM | > 12.5 µM | > 12.5 µM | > 12.5 µM | > 12.5 µM | – |
| CC(C)(C)CN1[C@@H]2CCCC[C@H]2N(CC(C)(C)C)P1(=O)C(O)/C=C/c1ccccc1 (stereo partly specified) | > 100 µM | > 100 µM | > 100 µM | > 100 µM | > 100 µM | > 100 µM | > 100 µM | > 100 µM | > 100 µM | 87.7 µM | > 100 µM | 85.3 µM | > 100 µM | > 100 µM | – |
| C=C1C(=O)OC2/C=C(\C)CC/C=C(\C)CC(OC(=O)/C(=C/CO)CO)[C@@H]12 (stereo partly specified) | 11.5 µM | 59.6 µM | 18.4 µM | 24.2 µM | 34.2 µM | 11.4 µM | 21.3 µM | 22.9 µM | 4.71 µM | 5.81 µM | 5.55 µM | 48.8 µM | 29.7 µM | 29.4 µM | 1.92 µM |
| CC1(C)N([O-])[N+](=O)C1(Br)c1ccccc1 (stereo unspecified) | > 100 µM | > 100 µM | > 100 µM | > 100 µM | > 100 µM | > 100 µM | > 100 µM | > 100 µM | > 100 µM | > 100 µM | > 100 µM | > 100 µM | > 100 µM | > 100 µM | – |
| COC(=O)C1=C(C(=O)OC)C(OO)(c2ccccc2)OC1=O (stereo unspecified) | > 100 µM | > 100 µM | > 100 µM | > 100 µM | > 100 µM | > 100 µM | > 100 µM | > 100 µM | > 100 µM | > 100 µM | > 100 µM | > 100 µM | > 100 µM | > 100 µM | – |
| COc1cc(/C=C2\CC(C)C/C(=C\c3ccc(O)c(OC)c3)C2=O)ccc1O (stereo unspecified) | > 100 µM | > 62.2 µM | 6.47 µM | 9.08 µM | 4.01 µM | 8.22 µM | 7.56 µM | 19.3 µM | 5.59 µM | 8.75 µM | 17.8 µM | 9.45 µM | 4.93 µM | 11 µM | – |
| Cn1c(-c2cccs2)cc(-c2ccsc2)c1-c1cccs1 | > 100 µM | > 100 µM | > 100 µM | > 100 µM | > 100 µM | > 100 µM | > 100 µM | > 100 µM | > 100 µM | > 100 µM | > 100 µM | > 100 µM | > 100 µM | > 100 µM | – |
| COc1ccc2cc(/C=N\NC(=O)Nc3ccc([N+](=O)[O-])cc3)ccc2c1 | 16.8 µM | 20.1 µM | 44.1 µM | 20.7 µM | 19.2 µM | > 71.4 µM | 16.6 µM | > 31.6 µM | 26.6 µM | 22.4 µM | 21.8 µM | 18.3 µM | 25 µM | 16.6 µM | – |
| CCOC(=O)CON=c1c2ccccc2ccc2ccccc12 | > 100 µM | > 100 µM | > 100 µM | > 100 µM | > 100 µM | > 100 µM | > 100 µM | > 100 µM | > 100 µM | > 100 µM | > 100 µM | > 100 µM | > 100 µM | > 100 µM | – |
| CN(C(=O)c1cc2c(s1)sc1c(=O)n(C)c3ccccc3c12)c1ccccc1 | > 100 µM | 77.1 µM | > 100 µM | > 100 µM | > 100 µM | > 100 µM | > 100 µM | > 100 µM | > 100 µM | > 100 µM | > 100 µM | 83.3 µM | > 100 µM | 69.5 µM | – |
